Broadly, the IC50 is the midpoint of a concentration-inhibition curve.

Sequence of ROCK2 (O75116 whole entry, species assumed): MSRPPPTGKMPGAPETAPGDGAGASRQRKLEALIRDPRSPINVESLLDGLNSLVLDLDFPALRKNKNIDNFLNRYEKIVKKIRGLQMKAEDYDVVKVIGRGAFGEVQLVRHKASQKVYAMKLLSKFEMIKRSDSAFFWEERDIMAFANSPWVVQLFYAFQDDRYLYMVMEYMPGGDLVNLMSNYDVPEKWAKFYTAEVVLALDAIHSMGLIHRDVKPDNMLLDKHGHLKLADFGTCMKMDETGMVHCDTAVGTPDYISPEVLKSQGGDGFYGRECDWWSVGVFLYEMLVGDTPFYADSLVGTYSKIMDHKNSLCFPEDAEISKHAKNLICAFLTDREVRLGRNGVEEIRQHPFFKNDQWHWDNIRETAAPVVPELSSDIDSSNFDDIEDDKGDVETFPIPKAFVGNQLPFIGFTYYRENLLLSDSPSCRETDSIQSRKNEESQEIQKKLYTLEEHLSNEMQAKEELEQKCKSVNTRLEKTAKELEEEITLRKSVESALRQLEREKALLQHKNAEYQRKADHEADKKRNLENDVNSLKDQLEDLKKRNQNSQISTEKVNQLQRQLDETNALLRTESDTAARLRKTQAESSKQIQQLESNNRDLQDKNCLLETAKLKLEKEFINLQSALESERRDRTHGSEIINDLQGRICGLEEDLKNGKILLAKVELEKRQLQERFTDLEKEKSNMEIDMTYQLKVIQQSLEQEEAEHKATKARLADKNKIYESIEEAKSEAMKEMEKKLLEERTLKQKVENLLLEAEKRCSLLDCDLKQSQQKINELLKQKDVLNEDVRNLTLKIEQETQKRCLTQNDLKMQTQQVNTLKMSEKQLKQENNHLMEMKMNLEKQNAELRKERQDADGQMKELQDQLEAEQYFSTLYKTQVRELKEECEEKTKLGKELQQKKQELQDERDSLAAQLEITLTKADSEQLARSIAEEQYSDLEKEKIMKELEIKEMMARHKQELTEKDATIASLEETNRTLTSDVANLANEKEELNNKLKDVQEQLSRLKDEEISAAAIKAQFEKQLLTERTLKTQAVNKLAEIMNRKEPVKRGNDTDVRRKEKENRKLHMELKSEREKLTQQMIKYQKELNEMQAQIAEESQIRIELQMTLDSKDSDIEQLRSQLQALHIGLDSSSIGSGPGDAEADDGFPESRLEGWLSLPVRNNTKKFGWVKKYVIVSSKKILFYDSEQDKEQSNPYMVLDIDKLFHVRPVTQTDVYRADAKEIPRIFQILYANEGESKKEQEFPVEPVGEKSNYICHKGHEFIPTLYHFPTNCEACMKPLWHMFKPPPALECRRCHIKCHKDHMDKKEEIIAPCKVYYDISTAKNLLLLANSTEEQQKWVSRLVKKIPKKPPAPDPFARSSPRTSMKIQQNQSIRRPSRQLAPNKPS

The target in the test is ROCK2 (Homo sapiens, UniProt O75116). Briefly: ROCK assay: phosphorylation of FITC peptide substrate, LABCHIP 3000 mobility shift. It counts as biochemical. Particulars: 5 μM ATP, 1.5 μM peptide substrate; read-out: ROCK2 Activity (ROCK IC50 range). Summed up:
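Rho kinase variant phosphorylates 1.5 μM FITC-AHA-AKRRRLSSLRA-OH with 5 μM ATP in 20 mM HEPES pH 7.5, 20 mM MgCl2, 0.015% Brij-35, 4 mM DTT, DMSO <2%. EDTA stops the reaction, and phospho and non-phospho peptides are resolved by LabChip 3000 mobility shift. IC50 from dose-response curve fit.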
As for `[H][C@]1(c2n[nH]c(=O)c3ccccc32)C[C@]2(C[C@@H](NC(=O)c3cnc4cc(N5CCC(F)(F)CC5)ccn34)C2)C1` (stereo partly drawn) [Example 391, 7-(4,4-difluoropiperidin-1-yl)-N-((aR)-6-(4-oxo-3,4-dihydrophthalazin-1-yl)spiro[3.3]heptan-2-yl)imidazo[1,2-a]pyridine-3 carboxamide], the IC50 fell in the range of 0.2 to 2 nM. The value for `[H][C@]1(c2n[nH]c(=O)c3ccccc32)C[C@]2(C[C@@H](NC(=O)c3cnc4cc(N5CCC(F)(F)C5)ccn34)C2)C1` (stereo partly drawn) [Example 392, 7-(3,3-difluoropyrrolidin-1-yl)-N-((aR)-6-(4-oxo-3,4-dihydrophthalazin-1-yl)spiro[3.3]heptan-2-yl)imidazo[1,2-a]pyridine-3 carboxamide] was 0.2 to 2 nM. The value for `[H][C@]1(c2n[nH]c(=O)c3ccccc32)C[C@@]2(C[C@H](NC(=O)c3cnc4cc(N5CC[C@@H](F)C5)ccn34)C2)C1` (stereo partly drawn) [Example 393, 7-((R)-3-fluoropyrrolidin-1-yl)-N-((aR)-6-(4-oxo-3,4-dihydrophthalazin-1-yl)spiro[3.3]heptan-2-yl)imidazo[1,2-a]pyridine-3-carboxamide] was 0.2 to 2 nM; that for `[H][C@]1(c2n[nH]c(=O)c3ccccc32)C[C@@]2(C[C@H](NC(=O)c3cnc4cc(N5CC[C@H](F)C5)ccn34)C2)C1` (stereo partly drawn) [Example 394, 7-((S)-3-fluoropyrrolidin-1-yl)-N-((aR)-6-(4-oxo-3,4-dihydrophthalazin-1-yl)spiro[3.3]heptan-2-yl)imidazo[1,2-a]pyridine-3-carboxamide] was 0.2 to 2 nM; that for `[H][C@]1(c2n[nH]c(=O)c3ccccc32)C[C@@]2(C[C@H](NC(=O)c3cnc4cc(N5CC[C@@H](O)C5)ccn34)C2)C1` (stereo partly drawn) [Example 395, 7-((R)-3-hydroxypyrrolidin-1-yl)-N-((aR)-6-(4-oxo-3,4-dihydrophthalazin-1-yl)spiro[3.3]heptan-2-yl)imidazo[1,2-a]pyridine-3-carboxamide] was 2.01 to 5 nM.

As for `[H][C@]1(c2n[nH]c(=O)c3ccccc32)C[C@]2(C[C@@H](NC(=O)c3cnc4cc(N(C)CCO)ccn34)C2)C1` (stereo partly drawn) [Example 396, 7-((2-hydroxy-ethyl)(methyl)amino)-N-((aR)-6-(4-oxo-3,4-dihydrophthalazin-1-yl)spiro[3.3]heptan-2-yl)imidazo[1,2-a]pyridine-3-carboxamide], the IC50 lay within 2.01 to 5 nM.

`[H][C@]1(c2n[nH]c(=O)c3ccccc32)C[C@]2(C[C@@H](NC(=O)c3cnc4cc(N(C)CCOC)ccn34)C2)C1` (stereo partly drawn) [Example 397, 7-((2-methoxy-ethyl)(methyl)amino)-N-((aR)-6-(4-oxo-3,4-dihydrophthalazin-1-yl)spiro[3.3]heptan-2-yl)imidazo[1,2-a]pyridine-3-carboxamide]: the IC50 lay in the range of 0.2 to 2 nM. In the case of `[H][C@]1(c2n[nH]c(=O)c3ccccc32)C[C@]2(C[C@@H](NC(=O)c3cnc4cc(OCCN5CCOCC5)ccn34)C2)C1` (stereo partly drawn) [Example 398, 7-(2-morpholinoethoxy)-N-((aR)-6-(4-oxo-3,4-dihydrophthalazin-1-yl)spiro[3.3]heptan-2-yl)imidazo[1,2-a]pyridine-3-carboxamide] it was 0.2 to 2 nM. The value for `[H][C@]1(c2n[nH]c(=O)c3ccccc32)C[C@]2(C[C@@H](NC(=O)c3cnc4cc(N(C)CC(C)(C)O)ccn34)C2)C1` (stereo partly drawn) [Example 399, 7-((2-hydroxy-2-methyl-propyl)(methyl)amino)-N-((aR)-6-(4-oxo-3,4-dihydrophthalazin-1-yl)spiro[3.3]heptan-2-yl)imidazo[1,2-a]pyridine-3-carboxamide] was 2.01 to 5 nM; that for `[H][C@]1(c2n[nH]c(=O)c3ccccc32)C[C@]2(C[C@@H](NC(=O)c3cnc4cc(OCC(C)(C)O)ccn34)C2)C1` (stereo partly drawn) [Example 400, 7-(2-hydroxy-2-methylpropoxy)-N-((aR)-6-(4-oxo-3,4-dihydrophthalazin-1-yl)spiro[3.3]heptan-2-yl)imidazo[1,2-a]pyridine-3-carboxamide] was 0.2 to 2 nM. For `[H][C@]1(c2n[nH]c(=O)c3ccccc32)C[C@]2(C[C@@H](NC(=O)c3cnc4cc(OCCN5CCCC5)ccn34)C2)C1` (stereo partly drawn) [Example 401, N-((aR)-6-(4-oxo-3,4-dihydrophthalazin-1-yl)spiro[3.3]heptan-2-yl)-7-(2-(pyrrolidin-1-yl)ethoxy)imidazo[1,2-a]pyridine-3-carboxamide], the IC50 lay within 2.01 to 5 nM. In the case of `[H][C@]1(c2n[nH]c(=O)c3ccccc32)C[C@]2(C[C@@H](NC(=O)c3cn(CC(C)(C)O)c4cc(=O)ccn34)C2)C1` (stereo partly drawn) [Example 402, 1-(2-hydroxy-2-methylpropyl)-7-oxo-N-((aR)-6-(4-oxo-3,4-dihydrophthalazin-1-yl)spiro[3.3]heptan-2-yl)-1,7-dihydroimidazo[1,2-a]pyridine-3-carboxamide] it was 100 to 2100 nM; in that of `[H][C@]1(c2n[nH]c(=O)c3ccccc32)C[C@]2(C[C@@H](NC(=O)c3cnc4cc(C(F)(F)F)ccn34)C2)C1` (stereo partly drawn) [Example 403, N-((aR)-6-(4-oxo-3,4-dihydrophthalazin-1-yl)spiro[3.3]heptan-2-yl)-7-(trifluoromethyl)imidazo[1,2-a]pyridine-3-carboxamide], 2.01 to 5 nM; in that of `[H][C@]1(c2n[nH]c(=O)c3ccccc32)C[C@]2(C[C@@H](NC(=O)c3cnc4c(F)cc(C(F)(F)F)cn34)C2)C1` (stereo partly drawn) [Example 404, 8-fluoro-N-((aR)-6-(4-oxo-3,4-dihydrophthalazin-1-yl)spiro[3.3]heptan-2-yl)-6-(trifluoromethyl)imidazo[1,2-a]pyridine-3-carboxamide], 15.1 to 100 nM. In the case of `[H][C@]1(c2n[nH]c(=O)c3ccccc32)C[C@]2(C[C@@H](NC(=O)c3cnc4c(C)cc(F)cn34)C2)C1` (stereo partly drawn) [Example 405, 6-fluoro-8-methyl-N-((aR)-6-(4-oxo-3,4-dihydrophthalazin-1-yl)spiro[3.3]heptan-2-yl)imidazo[1,2-a]pyridine-3-carboxamide] it was 0.2 to 2 nM. In the case of `[H][C@]1(c2n[nH]c(=O)c3ccccc32)C[C@]2(C[C@@H](NC(=O)c3cnc4cc(OC(F)F)ccn34)C2)C1` (stereo partly drawn) [Example 406, 7-(difluoromethoxy)-N-((aR)-6-(4-oxo-3,4-dihydrophthalazin-1-yl)spiro[3.3]heptan-2-yl)imidazo[1,2-a]pyridine-3-carboxamide], the IC50 was 0.2 to 2 nM. On to `[H][C@]1(c2n[nH]c(=O)c3ccccc32)C[C@]2(C[C@@H](NC(=O)c3cnc4ccc(F)c(C)n34)C2)C1` (stereo partly drawn) [Example 407, 6-fluoro-5-methyl-N-((aR)-6-(4-oxo-3,4-dihydrophthalazin-1-yl)spiro[3.3]heptan-2-yl)imidazo[1,2-a]pyridine-3-carboxamide], for which the IC50 lay within 15.1 to 100 nM. For the molecule `[H][C@]1(c2n[nH]c(=O)c3ccccc32)C[C@]2(C[C@@H](NC(=O)c3cnc4ccc(F)cn34)C2)C1` (stereo partly drawn) [Example 408, 6-fluoro-N-((aR)-6-(4-oxo-3,4-dihydrophthalazin-1-yl)spiro[3.3]heptan-2-yl)imidazo[1,2-a]pyridine-3-carboxamide], the IC50 fell in the range of 2.01 to 5 nM. Consider `[H][C@]1(c2n[nH]c(=O)c3ccccc32)C[C@]2(C[C@@H](NC(=O)c3cnc4cc(NCC(C)(C)O)ccn34)C2)C1` (stereo partly drawn) [Example 409, 7-((2-hydroxy-2-methylpropyl)amino)-N-((aR)-6-(4-oxo-3,4-dihydrophthalazin-1-yl)spiro[3.3]heptan-2-yl)imidazo[1,2-a]pyridine-3-carboxamide,], for which the IC50 is 2.01 to 5 nM. In the case of `[H][C@]1(c2n[nH]c(=O)c3ccccc32)C[C@]2(C[C@@H](NC(=O)c3cnc4cc(C)c(F)cn34)C2)C1` (stereo partly drawn) [Example 410, 6-fluoro-7-methyl-N-((aR)-6-(4-oxo-3,4-dihydrophthalazin-1-yl)spiro[3.3]heptan-2-yl)imidazo[1,2-a]pyridine-3-carboxamide] it was 2.01 to 5 nM. In the case of `[H][C@]1(c2n[nH]c(=O)c3ccccc32)C[C@]2(C[C@@H](NC(=O)c3cnc4c(F)cc(F)cn34)C2)C1` (stereo partly drawn) [Example 411, 6,8-difluoro-N-((aR)-6-(4-oxo-3,4-dihydrophthalazin-1-yl)spiro[3.3]heptan-2-yl)imidazo[1,2-a]pyridine-3-carboxamide] it was 5.1 to 15 nM; in that of `[H][C@]1(c2n[nH]c(=O)c3ccccc32)C[C@]2(C[C@@H](NC(=O)c3cnc4cc(C)ccn34)C2)C1` (stereo partly drawn) [Example 412, 7-methyl-N-((aR)-6-(4-oxo-3,4-dihydrophthalazin-1-yl)spiro[3.3]heptan-2-yl)imidazo[1,2-a]pyridine-3-carboxamide], 2.01 to 5 nM. In the case of `[H][C@]1(c2n[nH]c(=O)c3ccccc32)C[C@]2(C[C@@H](NC(=O)c3cnc4c(OCc5ccccc5)cccn34)C2)C1` (stereo partly drawn) [Example 413, 8-(benzyloxy)-N-((aR)-6-(4-oxo-3,4-dihydrophthalazin-1-yl)spiro[3.3]heptan-2-yl)imidazo[1,2-a]pyridine-3-carboxamide] it was 0.2 to 2 nM. For the molecule `[H][C@]1(c2n[nH]c(=O)c3ccccc32)C[C@]2(C[C@@H](NC(=O)c3cnc4cc(SC)ccn34)C2)C1` (stereo partly drawn) [Example 414, 7-(methylthio)-N-((aR)-6-(4-oxo-3,4-dihydrophthalazin-1-yl)spiro[3.3]heptan-2-yl)imidazo[1,2-a]pyridine-3-carboxamide], the IC50 was 0.2 to 2 nM. In the case of `[H][C@]1(c2n[nH]c(=O)c3ccccc32)C[C@]2(C[C@@H](NC(=O)c3cc4n(n3)CCNC4=O)C2)C1` (stereo partly drawn) [Example 415, 4-oxo-N-((aR)-6-(4-oxo-3,4-dihydrophthalazin-1-yl)spiro[3,3]heptan-2-yl)-4,5,6,7-tetrahydropyrazolo[1,5-a]pyrazine-2-carboxamide] it was 100 to 2100 nM; in that of `[H][C@]1(c2n[nH]c(=O)c3ccccc32)C[C@]2(C[C@@H](NC(=O)c3ccc(-c4cn[nH]c4)c(OC)c3)C2)C1` (stereo partly drawn) [Example 416, 3-methoxy-N-((aR)-6-(4-oxo-3,4-dihydrophthalazin-1-yl)spiro[3.3]heptan-2-yl)-4-(1H-pyrazol-4-yl)benzamide], 0.2 to 2 nM.

Values taken from US9902702B2, “Spirocycloheptanes as inhibitors of rock” (BRISTOL-MYERS SQUIBB COMPANY, priority 2014, dated 2018).
